Test results: patent US8652769B2, “Methods for separating frozen-thawed spermatozoa into X-chromosome bearing and Y-chromosome bearing populations” (XY, LLC, priority 2000, dated 2014)
Marks after values point to notes of the source that are not given here.

Tested on: oocytes inseminated with separated stained spermatozoa from frozen-thawed sperm
Assay: In-vitro fertilization: cleavage and development of oocytes inseminated with stained, flow-sorted frozen-thawed bull sperm
Type: cell-based, bovine
Experimental: As an example of an application of embodiments of the invention involving frozen bull sperm in IVF applications, sperm samples from two bulls were stained either at a concentration of 224 μM or 2,240 of Hoechst 33342 and the stained spermatozoa were then bulk sorted on a flow cytometer at 1000 sperm/sec into 2% egg yolk citrate. Spermatozoa were inseminated at 1×10^6/mL and embryos were cultured in the mSOF system described by Tervit H. R. et al., Successful Culture In-Vitro of Sheep and Cattle Ova, J. Reprod. Fertil., 30:493-497([…]), hereby incorporated by reference. Three replicates were carried out for bull 1 and one replicate for bull 2 (Table 1). With conventional procedures, blastocyst production with separated spermatozoa can be 70-90% of controls with spermatozoa that have not been separated.
As can be understood, it can take much longer to stain frozen-thawed sperm so that they can be resolved during separation at the lower stain concentration than at 10×stain concentration. The differences observed in cleavage rates between the two stain concentrations most likely can be attributed to the extended incubation time at the lower stain level.

[1] = Bull 1, 3 ejaculates, Hoechst 33342 conc. 224 μM, staining time required 190 min, 368 oocytes
[2] = Bull 1, 3 ejaculates, Hoechst 33342 conc. 2240 μM, staining time required 60 min, 373 oocytes
[3] = Bull 2, 1 ejaculate, Hoechst 33342 conc. 224 μM, staining time required 190 min, 86 oocytes
[4] = Bull 2, 1 ejaculate, Hoechst 33342 conc. 2240 μM, staining time required 60 min, 81 oocytes

`CCOc1ccc(-c2nc3ccc(-c4nc5ccc(N6CCN(C)CC6)cc5[nH]4)cc3[nH]2)cc1` [Hoechst 33342] was tested, and the “% blastocysts/oocyte” value [1] was 17%, the “% cleave” value [1] was 44^a % and the “% blastocysts/oocyte” value [2] was 23%. For the same compound, the “% cleave” value [2] was 60^b %, the “% blastocysts/oocyte” value [3] was 0^a % and the “% cleave” value [3] was 23^a %. The “% blastocysts/oocyte” value [4] was 16^b %, the “% cleave” value [4] was 42^b % and the “effect of increased stain concentration on cleavage or embryonic development” value (stain concentration up to at least 2240 μM) was “does not appear to have a depressive effect”.
